Measurements reported in ChEMBL document CHEMBL1130210, “Steroidal glycoside cholesterol absorption inhibitors” (1997).

Test system: Cricetinae gen. sp.
Test: Ability to inhibit the intestinal absorption of [3H]cholesterol in cholesterol-fed hamsters
Assay type: functional

Point of comparison: `C[C@@H]1CC[C@@]2(OC1)OC1C[C@H]3[C@@H]4CC[C@H]5C[C@@H](O[C@@H]6O[C@@H](CO)[C@@H](O[C@@H]7O[C@@H](COC(=O)Nc8ccccc8F)[C@@H](O)[C@H](O)[C@@H]7O)[C@H](O)[C@@H]6O)CC[C@]5(C)[C@H]4C(=O)C[C@]3(C)C1[C@@H]2C` (stereo not given in full), ED50 0.2 mg/kg. Against it:
- C[C@@H]1CC[C@@]2(OC1)O[C@H]1C[C@H]3[C@@H]4CC[C@H]5C[C@@H](O[C@@H]6O[C@H](CO)[C@H](O)[C@H](O)[C@H]6O)CC[C@]5(C)[C@H]4C(=O)C[C@]3(C)[C@H]1[C@@H]2C — 60-fold higher, 12 mg/kg
- CCOC(=O)CNC(=O)OC[C@@H]1O[C@@H](O[C@H]2[C@H](O)[C@H](O)[C@H](O[C@H]3CC[C@]4(C)C5C(=O)C[C@@]6(C)C(CC7O[C@]8(CC[C@@H](C)CO8)[C@@H](C)C76)C5CC[C@H]4C3)O[C@H]2CO)[C@@H](O)[C@@H](O)[C@@H]1OC(=O)NCC(=O)OCC (stereo not given in full) — 3-fold higher, 0.6 mg/kg
- C[C@@H]1CC[C@@]2(OC1)OC1CC3C4CC[C@H]5C[C@@H](O[C@@H]6O[C@@H](COC(=O)Nc7ccccc7)[C@@H](O[C@@H]7O[C@@H](COC(=O)Nc8ccccc8)[C@@H](O)[C@H](O)[C@@H]7O)[C@H](O)[C@@H]6O)CC[C@]5(C)C4C(=O)C[C@]3(C)C1[C@@H]2C (stereo not given in full) — 25-fold higher, 5 mg/kg
- CC1CC[C@@]2(OC1)OC1C[C@H]3[C@@H]4CC[C@H]5C[C@@H](OC6OC(C)C(OC7OC(C)C(O)C(O)C7O)C(O)C6O)CC[C@]5(C)[C@H]4C(=O)C[C@]3(C)C1[C@@H]2C (stereo not given in full) — 32-fold higher, 6.5 mg/kg
- C[C@@H]1CC[C@@]2(OC1)OC1CC3C4CC[C@H]5C[C@@H](O[C@@H]6O[C@@H](CO)[C@@H](O[C@@H]7O[C@@H](COC(=O)Nc8ccc(Cl)cc8)[C@@H](O)[C@H](O)[C@@H]7O)[C@H](O)[C@@H]6O)CC[C@]5(C)C4C(=O)C[C@]3(C)C1[C@@H]2C (stereo not given in full) — 5-fold higher, 1 mg/kg
- C[C@@H]1CC[C@@]2(OC1)OC1CC3C4CC[C@H]5C[C@@H](O[C@@H]6O[C@@H](COC(=O)Nc7ccccc7F)[C@@H](O[C@@H]7O[C@@H](CO)[C@@H](O)[C@H](O)[C@@H]7O)[C@H](O)[C@@H]6O)CC[C@]5(C)C4C(=O)C[C@]3(C)C1[C@@H]2C (stereo not given in full) — 35-fold higher, 7 mg/kg
- C[C@@H]1CC[C@@]2(OC1)OC1CC3C4CC[C@H]5C[C@@H](O[C@@H]6O[C@@H](CO)[C@@H](O[C@@H]7O[C@@H](COC(=O)Nc8c(Cl)cccc8Cl)[C@@H](O)[C@H](O)[C@@H]7O)[C@H](O)[C@@H]6O)CC[C@]5(C)C4C(=O)C[C@]3(C)C1[C@@H]2C (stereo not given in full) — the same, 0.2 mg/kg
- CCOCOC[C@@H]1O[C@@H](O[C@H]2[C@H](O)[C@H](O)[C@H](O[C@H]3CC[C@]4(C)C5C(=O)C[C@@]6(C)C(CC7O[C@]8(CC[C@@H](C)CO8)[C@@H](C)C76)C5CC[C@H]4C3)O[C@H]2COCOCC)[C@@H](O)[C@@H](O)[C@@H]1O (stereo not given in full) — 15-fold higher, 3 mg/kg
- C[C@@H]1CC[C@@]2(OC1)OC1CC3C4CC[C@H]5C[C@@H](O[C@@H]6O[C@@H](CO)[C@@H](O[C@@H]7O[C@@H](COC(=O)Nc8ccc(F)cc8F)[C@@H](O)[C@H](O)[C@@H]7O)[C@H](O)[C@@H]6O)CC[C@]5(C)C4C(=O)C[C@]3(C)C1[C@@H]2C (stereo not given in full) — within 1.5-fold, 0.25 mg/kg
- C[C@@H]1CC[C@@]2(OC1)OC1CC3C4CC[C@H]5C[C@@H](O[C@@H]6O[C@@H](CO)[C@@H](O[C@@H]7O[C@@H](COC(=O)Nc8ccccc8)[C@@H](OC(=O)Nc8ccccc8)[C@H](O)[C@@H]7O)[C@H](O)[C@@H]6O)CC[C@]5(C)C4C(=O)C[C@]3(C)C1[C@@H]2C (stereo not given in full) — 2-fold lower, 0.1 mg/kg
- C[C@@H]1CC[C@@]2(OC1)OC1CC3C4CC[C@H]5C[C@@H](O[C@@H]6O[C@@H](CO)[C@@H](O[C@@H]7O[C@@H](COC(=O)Nc8ccc(F)cc8F)[C@@H](OC(=O)Nc8ccc(F)cc8F)[C@H](O)[C@@H]7O)[C@H](O)[C@@H]6O)CC[C@]5(C)C4C(=O)C[C@]3(C)C1[C@@H]2C (stereo not given in full) — 5-fold lower, 0.04 mg/kg
- C[C@@H]1CC[C@@]2(OC1)OC1CC3C4CC[C@H]5C[C@@H](O[C@@H]6O[C@@H](CO)[C@@H](O[C@@H]7O[C@@H](COC(=S)Nc8ccccc8)[C@@H](OC(=S)Nc8ccccc8)[C@H](O)[C@@H]7O)[C@H](O)[C@@H]6O)CC[C@]5(C)C4C(=O)C[C@]3(C)C1[C@@H]2C (stereo not given in full) — 5-fold lower, 0.04 mg/kg
- C[C@@H]1CC[C@@]2(OC1)OC1CC3C4CC[C@H]5C[C@@H](O[C@@H]6O[C@@H](CO)[C@@H](O[C@@H]7O[C@@H](COC(=O)N8CCCC8)[C@@H](O)[C@H](O)[C@@H]7O)[C@H](O)[C@@H]6O)CC[C@]5(C)C4C(=O)C[C@]3(C)C1[C@@H]2C (stereo not given in full) — 7.5-fold higher, 1.5 mg/kg
- CC1CC[C@@]2(OC1)OC1C[C@H]3[C@@H]4CC[C@H]5C[C@@H](OC6OC(CCl)C(OC7OC(CCl)C(O)C(O)C7O)C(O)C6O)CC[C@]5(C)[C@H]4C(=O)C[C@]3(C)C1[C@@H]2C (stereo not given in full) — 2.5-fold higher, 0.5 mg/kg

Test system: Cricetinae gen. sp.
Test: Compound was tested for its ability to inhibit the intestinal absorption of [3H]cholesterol in cholesterol-fed hamsters at 200 mg/kg dose
Assay type: functional, Cricetulus griseus

In the case of `C[C@@]12CCC[C@H]1[C@@H]1CC[C@H]3C[C@@H](O[C@@H]4O[C@@H](CO)[C@@H](O[C@@H]5O[C@@H](CO)[C@@H](O)[C@H](O)[C@@H]5O)[C@H](O)[C@@H]4O)CC[C@]3(C)[C@H]1CC2`, the inhibition in vivo at 200 mg/kg is reported as 37%.

Test system: Cricetinae gen. sp.
Test: Compound was tested for its ability to inhibit the intestinal absorption of [3H]cholesterol in cholesterol-fed hamsters at 5 mg/kg dose
Assay type: functional, Cricetulus griseus

Point of comparison: `C[C@@H]1CC[C@@]2(OC1)OC1CC3C4CC[C@H]5C[C@@H](O[C@@H]6O[C@@H](CO)[C@@H](O[C@@H]7O[C@@H](COC(=O)Nc8c(Cl)cccc8Cl)[C@@H](OC(=O)Nc8c(Cl)cccc8Cl)[C@H](O)[C@@H]7O)[C@H](O)[C@@H]6O)CC[C@]5(C)C4C(=O)C[C@]3(C)C1[C@@H]2C` (stereo not given in full), inhibition in vivo at 5 mg/kg 40%. Against it:
- C[C@@H]1CC[C@@]2(OC1)OC1CC3C4CC[C@H]5C[C@@H](O[C@@H]6O[C@@H](COC(=O)Nc7ccc(Cl)cc7)[C@@H](O[C@@H]7O[C@@H](CO)[C@@H](O)[C@H](O)[C@@H]7O)[C@H](O)[C@@H]6O)CC[C@]5(C)C4C(=O)C[C@]3(C)C1[C@@H]2C (stereo not given in full) — lower, 37%

Test system: Cricetinae gen. sp.
Test: Compound was tested for its ability to inhibit the intestinal absorption of [3H]cholesterol in cholesterol-fed hamsters at 10 mg/kg dose
Assay type: functional, Cricetulus griseus

`C[C@@H]1CC[C@@]2(OC1)OC1C[C@H]3[C@@H]4CC[C@H]5C[C@@H](O[C@@H]6O[C@@H](CO)[C@@H](O[C@@H]7O[C@@H](CO)[C@@H](O)[C@H](O)[C@@H]7O)[C@H](O)[C@@H]6O)CC[C@]5(C)[C@H]4C(=O)C[C@]3(C)C1[C@@H]2C` (stereo not given in full) showed an inhibition in vivo at 10 mg/kg of 23%.

Test system: Cricetinae gen. sp.
Test: Compound was tested for its ability to inhibit the intestinal absorption of [3H]cholesterol in cholesterol-fed hamsters at 100 mg/kg dose
Assay type: functional, Cricetulus griseus

With `C[C@]12CC[C@@H]3c4ccc(O[C@@H]5O[C@@H](CO)[C@@H](O[C@@H]6O[C@@H](CO)[C@@H](O)[C@H](O)[C@@H]6O)[C@H](O)[C@@H]5O)cc4CC[C@H]3[C@@H]1CCC2=O` the inhibition in vivo at 100 mg/kg was 14%.
